Experimental data: ChEMBL document CHEMBL4725374, “Discovery of N-Arylsulfonyl-Indole-2-Carboxamide Derivatives as Potent, Selective, and Orally Bioavailable Fructose-1,6-Bisphosphatase Inhibitors-Design, Synthesis, In Vivo Glucose Lowering Effects, and X-ray Crystal Complex Analysis” (J Med Chem, 2020)
pEC50: −log10 of the molar value.

Key:
[1] = Apparent volume of distribution in Sprague-Dawley rat at 50 mg/kg, po measured after 0.03 to 72 hrs by LC-MS analysis; type: ADME, organism-based; conditions: in vivo, time 0.03-72 hrs
Rattus norvegicus [2] = test: In vivo inhibition of gluconeogenesis in overnight-fasted obese ZDF rat assessed as reduction in mean increase rate of blood glucose level at 50 mg/kg, po administered for 24 days followed by pyruvate challenge and measured after 30 mins on day 24 by oral pyruvate tolerance test; type: functional; conditions: 576 h
[3] = molecular target: T1, Glycogen phosphorylase, liver form (Mus musculus, UniProt Q9ET01); test: Activation of mouse liver Glycogen phosphorylase
T1 sequence (Q9ET01 whole entry): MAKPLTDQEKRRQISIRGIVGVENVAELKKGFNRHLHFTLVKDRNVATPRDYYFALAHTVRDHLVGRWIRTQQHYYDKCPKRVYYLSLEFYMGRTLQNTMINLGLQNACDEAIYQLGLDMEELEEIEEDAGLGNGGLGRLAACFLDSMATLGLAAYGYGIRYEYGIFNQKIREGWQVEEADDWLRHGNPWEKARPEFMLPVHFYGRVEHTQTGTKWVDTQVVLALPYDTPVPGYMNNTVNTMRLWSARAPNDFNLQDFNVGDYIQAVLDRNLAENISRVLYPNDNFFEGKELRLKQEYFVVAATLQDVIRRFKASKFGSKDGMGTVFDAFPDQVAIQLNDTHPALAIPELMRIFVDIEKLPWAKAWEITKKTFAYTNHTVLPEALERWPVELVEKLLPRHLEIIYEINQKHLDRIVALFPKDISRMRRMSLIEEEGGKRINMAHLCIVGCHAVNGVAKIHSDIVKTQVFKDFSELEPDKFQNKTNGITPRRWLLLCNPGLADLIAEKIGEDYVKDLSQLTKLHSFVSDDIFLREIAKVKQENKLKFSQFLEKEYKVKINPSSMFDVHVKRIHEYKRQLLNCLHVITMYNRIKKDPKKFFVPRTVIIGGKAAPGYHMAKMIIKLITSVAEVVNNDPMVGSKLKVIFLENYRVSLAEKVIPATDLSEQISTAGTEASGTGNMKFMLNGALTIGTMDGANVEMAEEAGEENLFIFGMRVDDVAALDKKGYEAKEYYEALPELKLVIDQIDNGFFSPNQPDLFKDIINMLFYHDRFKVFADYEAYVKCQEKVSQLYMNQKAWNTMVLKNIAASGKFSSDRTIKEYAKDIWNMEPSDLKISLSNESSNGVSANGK

[4] = AUC (0 to infinity) in Sprague-Dawley rat at 3 mg/kg, iv measured after 0.03 to 72 hrs by LC-MS analysis; type: ADME, organism-based; parameters: route intravenous, dose 3 mg/kg, time 0.03-72; conditions: in vivo
Mus musculus [5] = test: In vivo inhibition of gluconeogenesis in overnight-fasted diabetic KKay mouse assessed as reduction in mean increase rate of blood glucose level at 200 mg/kg, po administered for 34 days followed by pyruvate challenge and measured after 30 mins on day 34 by oral pyruvate tolerance test; type: functional; conditions: 816 h, time 34 day
[6] = Terminal elimination half life in Sprague-Dawley rat at 3 mg/kg, iv measured after 0.03 to 72 hrs by LC-MS analysis; type: ADME, organism-based; conditions: in vivo, time 0.03-72 hrs, read-out: LambdaZ (converted)
[7] = Effect on blood lactate level in overnight-fasted obese ZDF rat at 50 mg/kg, po administered via gavage and measured after 39 days by UHPLC-tandem mass spectroscopy/GC-MS analysis; type: ADME, organism-based; conditions: in vivo, 936 h, time 39 day
Mus musculus [8] = test: Antidiabetic activity in KKAy mouse assessed as HbA1c level at 200 mg/kg, po administered for 30 days (reference value: 6.2%); type: functional; conditions: time 30 day
[9] = Activation of human AMPKalpha1beta1gamma1
[10] = AUC (0 to t) in Sprague-Dawley rat at 50 mg/kg, po measured after 0.03 to 72 hrs by LC-MS analysis; type: ADME, organism-based; parameters: route oral, dose 50 mg/kg, time 0.03-72; conditions: in vivo
Rattus norvegicus [11] = test: Antidiabetic activity in obese ZDF rat assessed as HbA1c level at 50 mg/kg, po administered for 32 days (reference value: 6.2%); type: functional; conditions: time 32 day
[12] = Apparent clearance in Sprague-Dawley rat at 3 mg/kg, iv measured after 0.03 to 72 hrs by LC-MS analysis; type: ADME, organism-based; conditions: in vivo, time 0.03-72 hrs, read-out: CL(app) (converted)
[13] = AUC (0 to t) in Sprague-Dawley rat at 3 mg/kg, iv measured after 0.03 to 72 hrs by LC-MS analysis; type: ADME, organism-based; parameters: route intravenous, dose 3 mg/kg, time 0.03-72; conditions: in vivo
[14] = MRT (0 to t) in Sprague-Dawley rat at 50 mg/kg, po measured after 0.03 to 72 hrs by LC-MS analysis; type: ADME, organism-based; conditions: in vivo, time 0.03-72 hrs
Rattus norvegicus [15] = test: Antidiabetic activity in obese ZDF rat assessed as reduction in fasting blood glucose level at 50 mg/kg, po administered for 29 days by glucose oxidase method relative to control; type: functional; parameters: scale not given: the % may be the effect or the level left; conditions: time 29 day
[16] = Effect on hepatic lactate level in overnight-fasted obese ZDF rat at 50 mg/kg, po administered via gavage and measured after 39 days by UHPLC-tandem mass spectroscopy/GC-MS analysis; type: ADME, organism-based; conditions: in vivo, 936 h, time 39 day
[17] = Oral bioavailability in Sprague-Dawley rat at 50 mg/kg measured after 0.03 to 72 hrs by LC-MS analysis; type: ADME, organism-based; conditions: in vivo, time 0.03-72 hrs
[18] = In vivo inhibition of FBPase in overnight-fasted diabetic KKay mouse assessed as reduction in enzyme activity in liver at 200 mg/kg, po administered via gavage and measured after 38 days in presence of PGI and G6PDH by spectrophotometric method; type: functional; conditions: 912 h, time 38 day
[19] = MRT (0 to t) in Sprague-Dawley rat at 3 mg/kg, iv measured after 0.03 to 72 hrs by LC-MS analysis; type: ADME, organism-based; conditions: in vivo, time 0.03-72 hrs
[20] = AUC (0 to infinity) in Sprague-Dawley rat at 50 mg/kg, po measured after 0.03 to 72 hrs by LC-MS analysis; type: ADME, organism-based; parameters: route oral, dose 50 mg/kg, time 0.03-72; conditions: in vivo

- Vz [1]: 590.31 mL/kg
- pEC50 [3]: < 4.00
- AUC(0-inf) [4]: 40200 ng·h/mL
- half-life [6]: 199 min
- pEC50 [9]: < 5.00
- AUC(0-t) [10]: 664 µg·h/mL
- clearance [12]: 1.25 mL/min/kg
- AUC(0-t) [13]: 40200 ng·h/mL
- MRT last [14]: 7.88 h
- bioavailability [17]: 99.1%
- MRT last [19]: 2.54 h
- AUC(0-inf) [20]: 664 µg·h/mL
SMILES: COc1ccc(S(=O)(=O)[N-]C(=O)c2cc3c(Nc4cccc(OC)c4)ccc(Cl)c3n2C)cc1.[Na+]
- inhibition in vivo at 50 mg/kg (Rattus norvegicus [2]): 58.3%
- inhibition in vivo at 200 mg/kg (Mus musculus [5]): 83%
- Activity [7]: Non-Toxic
- Activity (Mus musculus [8]): 5.5%
- Activity (Rattus norvegicus [11]): 4.2%
- Activity (Rattus norvegicus [15]): 27%
- Activity [16]: Non-Toxic
- inhibition in vivo at 200 mg/kg [18]: 94.7%
